Measured values: patent US20080279866A1, “Induction of immunosuppression by inhibition of ATM” (The Brigham and Women's Hospital, Inc., priority 2006, published 2008)

Legend:
[1] = tested on: other PI-3 kinase-like kinase family members; details: cited from earlier work
[2] = tested on: ATM targets including p53, H2AX and NBS1; details: cited from earlier work
alloreactive T cells = test: Cytokine production of alloreactive T cells stimulated with alloantigen; assay type: cell-based; details: treated with ATM inhibiting agent in addition to alloantigen; preliminary data
[3] = tested on: graft vs. host disease (GVHD); test: GVHD after BMT: lethally irradiated Balb/c mice given C57BL/6 bone marrow and treated splenocytes; assay type: in vivo, mouse
Protocol: To test this, Balb/c mice were lethally irradiated one day prior to BMT with C57BL/6 bone marrow. 48 Hours after BMT, mice received splenocytes treated with allogeneic stimulators, allogeneic stimulators and KU55933, or no stimulators and KU55933.

C57BL/6 T cells [4] = test: Stimulation of T cells with anti-CD3 and CD28 in the presence of KU-55933 (annexin-V/CFSE flow cytometry); assay type: cell-based, mouse
Protocol: Cells were then labeled for 20 minutes with 2 μM 5(6)-Carboxyfluorescein diacetate N-succinimidyl ester (CFSE, Sigma-Aldrich) in Hank's balanced salt solution (HBSS, Mediatech, Herndon, Va.). Cells were plated at a concentration of 2-5×10^6/ml in Dulbecco's modified eagle's medium (DMEM (Mediatech) supplemented with 15% heat-inactivated fetal calf serum (Sigma-Aldrich, St. Louis, Mo.), penicillin (100 U/ml), streptomycin (100 μg/ml), 2 mM L-glutamine, 10 mM Hepes, 0.1 mM nonessential amino acids, 1 mM sodium pyruvate (Mediatech) (complete DMEM). Cells were treated with 1 μg/ml anti-CD3 antibody (2C11 (30)) and 1 μg/ml anti-CD28 antibody (37.51, Gross, et al., J. Immunol. 149:380 (1992)). Cells were cultured at 37 C, 5% CO2 for the indicated time. For studies of Atm−/− T cell proliferation in response to mitogens, purified T cells were cultured with 2 μg/ml Concanavalin A or 10 ng/ml PMA and 1 μg/m ionomycin.
Stimulation of T cells in the Presence of KU-55933: T cells were purified from C57BL/6 mice (Jackson Laboratories) and re-suspended at 1.5×10^6 cells/ml in complete DMEM with 1 μg/10^6 cells anti-CD3 and CD28 and the indicated concentration of KU-55933 (KuDos Pharmaceuticals) or the same volume of DMSO (Sigma-Aldrich). Some cultures were in addition treated with 4 mM N-acetyl cysteine (Sigma-Aldrich).
Flow Cytometry: Cells were harvested, washed in HBSS and stained with Annexin-V phycoerythrin (BD Biosciences), or Annexin V-biotin (R&D Systems) in addition to streptavidin conjugated phycoerythrin according to the manufacturer's instructions. Cells were then stained with anti-CD4-APC (RM4-5, BD Biosciences) or anti-CD8-APC (53-6.7 BD Biosciences) and 7-actinomycin D (Sigma-Aldrich) or propidium iodide (Sigma-Aldrich). All analysis was performed using. FloJo software (TreeStar Inc).

Atm deficient T cells = test: Stimulation of Atm deficient T cells with anti-CD3 and CD28 with or without NAC; assay type: cell-based, mouse; details: 2 mM NAC
From the text: Mice: Heterozygous 129S6/SvEvTac-Atm^tm1-Awb mice […] were purchased from the Jackson Laboratory (Bar Harbor, Me.). An independently generated Atm knockout mouse model was used to confirm our observations (Borghesani, et al., Proc. Nat'l Acad. Sci. USA 97:3336 (2000)). All mice were housed under microisolator conditions in autoclaved cages and were maintained on irradiated feed and autoclaved acidified drinking water. All sentinel mice housed in the same colony were free of viral antibodies. Four- to 6-week-old mice were used in all experiments.
Purification and Stimulation of T Cells: Splenocytes were harvested from 4-6 week old Atm−/− mice or wild-type littermates bred in our animal facility. In some experiments C57BL/6 mice were used as a source of wild-type T cells. Red blood cells were lysed using ACK lysing buffer (Cambrex, Walkerville, Md.) for 3 minutes at room temperature. In experiments in which T cells were purified, splenocytes were incubated with anti-CD4 (GK1.5, Dialynas, et al., J. Immunol. 131:2445 (1983)) and anti-CD8 (2.43, Sarmiento, et al., J. Immunol. 125:2665 (1980)) antibodies for 30 min at 4° C. Cells were then washed and incubated with magnetic beads conjugated to anti-rat IgG antibody, prior to positive selection by MACS according to the manufacturer's instructions (Miltenyi Biotech, USA Auburn Calif.). […]

C57BL/6 T cells [5] = test: Stimulation of T cells with anti-CD3 and CD28 in the presence of caffeine (annexin-V/CFSE flow cytometry); assay type: cell-based, mouse
Protocol: Cells were then labeled for 20 minutes with 2 μM 5(6)-Carboxyfluorescein diacetate N-succinimidyl ester (CFSE, Sigma-Aldrich) in Hank's balanced salt solution (HBSS, Mediatech, Herndon, Va.). Cells were plated at a concentration of 2-5×10^6/ml in Dulbecco's modified eagle's medium (DMEM (Mediatech) supplemented with 15% heat-inactivated fetal calf serum (Sigma-Aldrich, St. […] Cells were treated with 1 μg/ml anti-CD3 antibody (2C11 (30)) and 1 μg/ml anti-CD28 antibody (37.51, Gross, et al., J. Immunol. 149:380 (1992)). […] For studies of Atm−/− T cell proliferation in response to mitogens, purified T cells were cultured with 2 μg/ml Concanavalin A or 10 ng/ml PMA and 1 μg/m ionomycin. Stimulation of T cells in the Presence of Caffeine: […] Some cultures were, in addition, treated with 2 mM N-acetyl cysteine (Sigma-Aldrich). Flow Cytometry: Cells were harvested, washed in HBSS and stained with Annexin-V phycoerythrin (BD Biosciences), or Annexin V-biotin (R&D Systems) in addition to streptavidin conjugated phycoerythrin according to the manufacturer's instructions. Cells were then stained with anti-CD4-APC (RM4-5, BD Biosciences) or anti-CD8-APC (53-6.7 BD Biosciences) and 7-actinomycin D (Sigma-Aldrich) or propidium iodide (Sigma-Aldrich). All analysis was performed using. FloJo software (TreeStar Inc).

ATM = ATM (Homo sapiens, UniProt Q13315); details: cited from earlier work
ATM, sequence (Q13315 whole entry, species assumed): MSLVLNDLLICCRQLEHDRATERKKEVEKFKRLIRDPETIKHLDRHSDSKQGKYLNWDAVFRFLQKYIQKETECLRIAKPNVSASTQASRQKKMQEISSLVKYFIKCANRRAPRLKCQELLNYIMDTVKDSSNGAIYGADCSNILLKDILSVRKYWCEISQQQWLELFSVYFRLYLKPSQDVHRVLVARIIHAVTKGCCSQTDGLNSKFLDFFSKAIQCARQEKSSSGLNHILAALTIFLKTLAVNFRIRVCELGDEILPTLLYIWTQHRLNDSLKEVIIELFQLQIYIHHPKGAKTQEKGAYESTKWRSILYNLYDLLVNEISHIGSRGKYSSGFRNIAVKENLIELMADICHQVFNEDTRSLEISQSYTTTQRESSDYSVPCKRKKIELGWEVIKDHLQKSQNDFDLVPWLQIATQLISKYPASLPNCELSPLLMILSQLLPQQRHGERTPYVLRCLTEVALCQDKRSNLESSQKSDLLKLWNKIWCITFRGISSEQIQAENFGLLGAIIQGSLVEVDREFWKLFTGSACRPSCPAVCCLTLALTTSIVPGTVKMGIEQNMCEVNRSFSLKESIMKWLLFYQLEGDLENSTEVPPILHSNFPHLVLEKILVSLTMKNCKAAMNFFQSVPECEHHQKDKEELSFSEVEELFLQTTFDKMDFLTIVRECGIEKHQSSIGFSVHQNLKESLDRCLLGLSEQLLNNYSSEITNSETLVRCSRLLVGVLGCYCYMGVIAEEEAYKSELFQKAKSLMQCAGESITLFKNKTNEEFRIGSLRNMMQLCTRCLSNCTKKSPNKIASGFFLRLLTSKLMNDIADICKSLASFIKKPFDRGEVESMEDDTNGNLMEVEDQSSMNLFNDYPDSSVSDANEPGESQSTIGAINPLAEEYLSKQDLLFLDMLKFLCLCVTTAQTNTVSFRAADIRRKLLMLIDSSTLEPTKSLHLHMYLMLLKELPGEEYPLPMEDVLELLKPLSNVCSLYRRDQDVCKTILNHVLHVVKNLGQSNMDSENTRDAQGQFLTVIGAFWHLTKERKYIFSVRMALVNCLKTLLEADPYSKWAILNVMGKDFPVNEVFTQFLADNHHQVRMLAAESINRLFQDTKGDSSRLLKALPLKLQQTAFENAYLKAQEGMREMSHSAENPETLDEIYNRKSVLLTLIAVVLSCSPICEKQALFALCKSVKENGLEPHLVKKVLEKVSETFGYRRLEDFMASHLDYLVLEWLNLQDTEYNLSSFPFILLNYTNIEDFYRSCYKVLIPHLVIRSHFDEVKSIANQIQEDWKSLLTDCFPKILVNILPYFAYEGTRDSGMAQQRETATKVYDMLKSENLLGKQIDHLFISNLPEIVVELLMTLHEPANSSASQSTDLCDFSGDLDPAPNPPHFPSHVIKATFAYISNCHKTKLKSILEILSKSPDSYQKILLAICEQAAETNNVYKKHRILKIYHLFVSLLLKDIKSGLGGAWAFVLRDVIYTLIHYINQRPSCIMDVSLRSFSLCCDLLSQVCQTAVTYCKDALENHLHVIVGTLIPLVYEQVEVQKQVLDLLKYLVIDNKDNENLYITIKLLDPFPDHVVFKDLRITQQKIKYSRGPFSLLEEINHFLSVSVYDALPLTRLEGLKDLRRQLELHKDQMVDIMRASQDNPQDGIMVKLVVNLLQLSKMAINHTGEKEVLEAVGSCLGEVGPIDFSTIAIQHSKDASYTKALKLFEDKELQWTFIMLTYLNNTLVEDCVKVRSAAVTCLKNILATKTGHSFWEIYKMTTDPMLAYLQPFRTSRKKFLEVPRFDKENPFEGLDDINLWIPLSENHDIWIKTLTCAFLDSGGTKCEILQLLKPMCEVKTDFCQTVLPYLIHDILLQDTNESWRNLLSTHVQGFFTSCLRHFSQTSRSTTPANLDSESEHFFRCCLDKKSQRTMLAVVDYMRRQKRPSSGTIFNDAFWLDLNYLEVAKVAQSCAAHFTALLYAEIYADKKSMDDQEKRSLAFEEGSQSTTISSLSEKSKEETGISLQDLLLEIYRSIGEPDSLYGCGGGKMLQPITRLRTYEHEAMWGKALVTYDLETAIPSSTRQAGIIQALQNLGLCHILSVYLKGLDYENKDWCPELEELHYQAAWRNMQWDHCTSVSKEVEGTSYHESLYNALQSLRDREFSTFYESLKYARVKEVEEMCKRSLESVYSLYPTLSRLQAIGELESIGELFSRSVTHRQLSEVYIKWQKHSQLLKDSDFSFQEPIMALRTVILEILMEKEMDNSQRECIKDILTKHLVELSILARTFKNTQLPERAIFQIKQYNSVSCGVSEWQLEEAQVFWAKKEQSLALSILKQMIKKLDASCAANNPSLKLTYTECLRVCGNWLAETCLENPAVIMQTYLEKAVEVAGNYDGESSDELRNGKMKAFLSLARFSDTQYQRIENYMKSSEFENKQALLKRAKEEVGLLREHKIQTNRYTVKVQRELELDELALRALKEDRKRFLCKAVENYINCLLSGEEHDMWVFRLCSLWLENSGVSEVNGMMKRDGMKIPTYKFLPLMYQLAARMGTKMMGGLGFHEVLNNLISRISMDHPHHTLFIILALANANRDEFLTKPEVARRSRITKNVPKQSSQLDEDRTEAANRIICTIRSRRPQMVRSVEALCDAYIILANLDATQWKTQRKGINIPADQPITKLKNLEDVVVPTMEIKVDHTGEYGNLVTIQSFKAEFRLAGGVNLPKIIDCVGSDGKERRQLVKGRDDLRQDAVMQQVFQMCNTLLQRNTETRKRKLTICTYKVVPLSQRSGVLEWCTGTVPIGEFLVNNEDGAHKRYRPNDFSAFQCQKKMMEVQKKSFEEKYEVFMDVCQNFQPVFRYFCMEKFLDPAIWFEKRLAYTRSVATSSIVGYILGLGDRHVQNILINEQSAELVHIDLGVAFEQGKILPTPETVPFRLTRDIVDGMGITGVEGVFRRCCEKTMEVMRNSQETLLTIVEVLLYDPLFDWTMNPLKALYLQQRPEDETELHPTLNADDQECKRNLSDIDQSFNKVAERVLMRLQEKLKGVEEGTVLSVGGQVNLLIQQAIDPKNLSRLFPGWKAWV

ATR = ATR (Homo sapiens, UniProt Q13535); details: 3 mM caffeine; cited from earlier work
[6] = C57BL/6 T cells stimulated with anti-CD3 and CD28

Question: Which results are given for `O=c1cc(-c2cccc3c2Sc2ccccc2S3)oc(N2CCOCC2)c1` [KU-55933, 2-morpholin-4-yl-6-thianthren-1-yl-pyran-4-one]?
Answer: inhibition of other PI-3 kinase-like kinase family members [1]: does not inhibit; ionizing-radiation-dependent phosphorylation of known ATM targets [2]: abrogation; production of IL-2, IFN-g and IL-4 in response to alloantigen (alloreactive T cells): fail to produce these cytokines; animals surviving long-term ([3]; recipients of splenocytes treated ex vivo with allogeneic stimulators and KU55933, given 48 hours after BMT): three out of four; development of GVHD (time) ([3]; recipients of unstimulated splenocytes treated with KU55933): 30 to 40 days; T cell proliferation versus untreated controls (C57BL/6 T cells [4]; 20 μM KU-55933, 48 and 72 hours after stimulation): significantly less proliferation; effect on cell viability (C57BL/6 T cells [4]; 20 μM KU-55933, 24 hours, anti-CD3 and CD28): no effect; KU-55933 concentration (as low as) that induced T cell apoptosis (C57BL/6 T cells [4]; [6]): 10 µM; response of normal T cells exposed to anti-CD3 and anti-CD28 (C57BL/6 T cells [4]; exposed to KU-55933): undergo apoptosis; frequency of T cells undergoing apoptosis with increasing concentration (C57BL/6 T cells [4]; increasing KU-55933 concentration, anti-CD3 and CD28): dose dependent increase

Question: For `CC(=O)N[C@@H](CS)C(=O)O` [NAC, N-acetyl cysteine], which “proliferation of Atm deficient T cells, effect of NAC” value (Atm deficient T cells) is on record?
Answer: restored the ability of Atm deficient T cells to undergo proliferation

Question: And the “apoptosis induced in the presence of caffeine, effect of NAC” value (C57BL/6 T cells [5]; 2 mM NAC added, 2.5 mM caffeine, anti-CD3 and CD28, normal T cells)?
Answer: prevented

Question: What about the “apoptosis induced in the presence of KU-55933, effect of NAC” value (C57BL/6 T cells [4]; NAC added (4 mM per method), 20 μM KU-55933, anti-CD3 and CD28, normal T cells) of the same molecule?
Answer: prevented

Question: With `Cn1c(=O)c2c(ncn2C)n(C)c1=O` [caffeine] as the molecule, how does the “ATM function in vitro” value (ATM; 1 mM caffeine) read?
Answer: inhibit ATM

Question: And the “inhibition of ATM function” value (ATM; 3 mM caffeine)?
Answer: 50%

Question: And the “inhibition of ATR function” value (ATR)?
Answer: 50%

Question: And the “T cells remaining annexin-V negative” value (C57BL/6 T cells [5]; 2.5 mM caffeine, 48 and 72 hours after stimulation)?
Answer: only T cells which did not divide remained annexin-V negative

Question: And the “effect on cell viability” value (C57BL/6 T cells [5]; 2.5 mM caffeine, 24 hours, anti-CD3 and CD28)?
Answer: no effect

Question: What about the “caffeine concentration (as low as) that induced T cell apoptosis” value (C57BL/6 T cells [5]; [6]) of the same molecule?
Answer: 1 mM

Question: And the “response of normal T cells exposed to anti-CD3 and anti-CD28” value (C57BL/6 T cells [5]; exposed to caffeine)?
Answer: undergo apoptosis

Question: What about the “frequency of T cells undergoing apoptosis with increasing concentration” value (C57BL/6 T cells [5]; increasing caffeine concentration, anti-CD3 and CD28) of the same molecule?
Answer: dose dependent increase
